The values that follow are results of earlier work, collected in patent US6699847B2, “Antiparasitic formulation” (Pfizer Inc., priority 1998, dated 2004).

In the case of `CO[C@H]1C[C@H](O[C@H]2[C@H](C)O[C@@H](O[C@@H]3/C(C)=C/C[C@@H]4C[C@@H](C[C@]5(C=C[C@H](C)[C@@H](C6CCCCC6)O5)O4)OC(=O)[C@@H]4C=C(C)[C@@H](O)[C@H]5OC/C(=C\C=C\[C@@H]3C)[C@]54O)C[C@@H]2OC)O[C@@H](C)[C@@H]1O` [Doramectin], the solubility in water result was “sparingly soluble”.
